The results in this text go back to patent US20130288978A1, “DERMATOPONTIN-ACTIVATING PEPTIDES AND COSMETIC COMPOSITIONS INCLUDING SAME” (ISP INVESTMENTS INC., priority 2010, published 2013).

Entries after “also recorded” stand apart in the source; their conditions may differ. Ends that are not written are not given here.

Experiment [1] concerns fibronectin. Briefly: Fibronectin immunofluorescence labeling in ex vivo human skin cultures. The experiment is classed as cell-based. Conditions: 10^−6 M applied topically, 24 or 48 hours. As to the method:
(§1) The objective of this study is to determine the influence of the SEQ ID No. 5 peptide on the expression of fibronectin, a protein of the extracellular matrix synthesized by the fibroblasts. For this, specific immunofluorescence labelings were performed on fibroblast cultures and on ex vivo skin cultures.
The human skin samples are placed in culture at the air/liquid interface. A 10^−6 M solution SEQ ID No. 5 peptide or SEQ ID No. 9 peptide is to be applied topically, then the samples are incubated for 24 or 48 hours. These skin samples are then fixed with formaldehyde, then embedded in paraffin or fixed with OCT by freezing at −20° C. Sections of 3 to 4 μm are then produced (6 μm for cold sections). The immunolabeling of the samples embedded in paraffin is performed after unmasking specific sites. The immunolabeling of the samples embedded in OCT is performed after fixation at 37° C. and with cold acetone.
(§2) The fixed cells or the sections are incubated in the presence of a specific rabbit fibronectin polyclonal antibody (Sigma, Ref: F-3648), then a secondary antibody, coupled with a fluorescent marker. The cells are then examined with the Epi-fluorescence microscope (Nikon Eclipse E600 microscope).

In experiment [2] the test system is collagen III. Description: Collagen III immunofluorescence labeling in ex vivo human skin sections. It is filed as cell-based. Conditions: 10^−6 M applied topically, 24 or 48 hours, vs control conditions. How it is done:
(§3) The human skin samples are placed in culture at the air/liquid interface. A 10^−6M solution of SEQ ID No. 5 peptide or SEQ ID No. 9 peptide is applied topically, then the samples are incubated for 24 hours or 48 hours. These skin samples are then fixed with formaldehyde, then embedded in paraffin or fixed with OCT by freezing at −20° C. Sections of 3 to 4 μm are then produced (6 μm for cold sections). The immunolabeling of samples embedded in paraffin is performed after unmasking specific sites. The immunolabeling of the samples embedded in OCT is performed after fixation at 37° C. and with cold acetone.
(§4) The fixed cells or sections are incubated in the presence of a specific rabbit collagen I polyclonal antibody (Rockland, Ref: 600-401-103) or a specific rabbit collagen III polyclonal antibody (Rockland, Ref: 600-401-105), then a secondary antibody coupled to a fluorescent marker. After mounting in an ad hoc medium, the cells are then examined with the Epi-fluorescence microscope (Nikon Eclipse E600 microscope).

For a further experiment, the system named is dermal fibroblasts. Description: Ibidi in vitro healing model (gap filling), fibroblasts. The experiment is classed as cell-based, human. From the text:
(§5) The objective of this study is to determine the regenerating effect of the SEQ ID No. 5 peptide on dermal fibroblasts and normal human keratinocytes (NHEK). To do this, the Ibidi in vitro healing model (Integrated Bio Diagnostics, Munich, Germany) was used.
(§6) This test consists of maintaining a cell-free area at the middle of a cell layer and of evaluating the time taken by the cells arranged on either side of the “scar” to migrate or proliferate and fill the gap. The self-adhesive silicone culture inserts are placed at the base of a well of a culture plate. These inserts have the special feature of being comprised of two distinct chambers separated by an impermeable membrane with a thickness of 500 μm. Each of the two chambers is seeded with cells of the same cell type and cultivated until confluency. The insert is then removed with sterile tweezers, creating an acellular area 400 μm wide between the two cell layers. The cells are then treated with a 10^−6 M or a 3×10^−6M solution of SEQ ID No. 5 peptide added to the culture medium, with renewal of the peptide every 24 hours. Phase-contrast microscopy observations (Olympus CK40 microscope X5 connected to an Olympus E-510 camera) were performed at different times (0, 6, 24, 30 and 48 hours) until the proliferation and migration process results in the filling of the gap.

Experiment [3] deals with dermatopontin. Briefly: Dermatopontin immunofluorescence labeling in normal human fibroblast cultures. Conditions: normal human fibroblasts, peptide 10^−6 M once daily, 24 or 48 hours, vs control conditions. It is filed as cell-based. As to the method:
(§7) The objective of this study is to determine the influence of the SEQ ID No. 5 peptide and of the SEQ ID No. 9 peptide on the expression of dermatopontin in fibroblasts. For this, specific immunofluorescence labelings were performed on normal human fibroblast cultures and on skin kept in culture ex vivo.
Normal human fibroblasts are cultivated for 24 or 48 hours and treated once daily with a 10^−6M solution of peptide SEQ ID No. 5 or of peptide SEQ ID No. 9. The cells are then washed and fixed with 3.7% formaldehyde for 10 minutes at ambient temperature.
(§8) The fixed cells or the sections are incubated in the presence of a specific rabbit dermatopontin polyclonal antibody (Proteintech group, Ref: 10537-1-AP), then a secondary antibody, coupled to a fluorescent marker. After mounting in an ad hoc medium, the cells are then examined with an Epi-fluorescence microscope (Nikon Eclipse E600 microscope).

In experiment [4] the test system is collagen III. Briefly: Collagen III immunofluorescence labeling in normal human fibroblast cultures. Conditions: 10^−6 M once per day, 24 or 48 hours, vs control conditions. The experiment is classed as cell-based. As to the method: (§9) The objective of this study is to determine the influence of the SEQ ID No. 5 peptide on the expression of molecules of the dermal extracellular matrix. For this, the expression of collagens I and III in human fibroblasts obtained from the dermis was studied.
(§10) Normal human fibroblasts are cultivated for 24 or 48 hours and treated once per day with a 10^−6M solution of SEQ ID No. 5 peptide or SEQ ID No. 9 peptide. The cells are then washed and fixed with formaldehyde at 3.7% for 10 minutes at ambient temperature.
as §4

The test system of experiment [5] is collagen I. Description: Collagen I immunofluorescence labeling in normal human fibroblast cultures. It is filed as cell-based. The conditions noted are these: 10^−6 M once per day, 24 or 48 hours, vs control conditions. As to the method:
as §9, §10, §4

Another experiment has as its system fibroblasts. Description: Ultrastructure (transmission electron microscopy) of fibroblasts in culture. The experiment is classed as cell-based. Conditions: 10^−6 M, 48 hours. How it is done: (§11) The objective of this study is to observe the subcellular structures of keratinocytes and fibroblasts treated by the SEQ ID No. 5 peptide at 10^−6 M.
(§12) NHEK or fibroblasts are cultivated in a dish or in a Transwell system, or skins cultivated ex vivo are treated with a 10^−6 M solution of SEQ ID No. 5 peptide for 48 hours (the medium is changed every 24 hours). The skin cells or samples are washed with PBS, then are fixed by Karnosky hypertonic fixation (4% paraformaldehyde, 5% glutaraldehyde in a 0.08M phosphate buffer), 1 hour at ambient temperature, then 24 hours at 4° C. The cells are detached from the substrate by scraping, centrifuged for 5 minutes at 1000 rpm at 4° C. The supernatant is removed and a 0.1 M sodium cacodylate buffer is deposited on the pellet. The cells are mixed with 2% agar then post-fixed by osmium tetroxide for 1 hour. The specimens are then dehydrated by successive passages in an alcohol series (50 to 100%). The skin cells or samples are then coated with a resin. The polymerization is performed for around 12 hours at 60° C. Semi-fine sections of 0.5 μm are performed with the ultra-microtome. The sections are deposited on a subbed slide under heat then stained with toluidine blue. The slides are then dehydrated again and mounted in a suitable medium. […]

Experiment [6] relates to collagen I. Briefly: Collagen I immunofluorescence labeling in ex vivo human skin sections. It is filed as cell-based. Conditions: 10^−6 M applied topically, 24 or 48 hours, vs control conditions. How it is done:
as §3, §4

Experiment [7] has as its system elastic fibers present in the dermis. Description: Elastic fiber staining (Elastika van Gieson) of ex vivo human skin irradiated by UVA. Conditions: 10^−6 M topically 48 hours before UVA 5 J/cm^2, vs untreated irradiated controls. It is filed as cell-based. How it is done:
The objective of this study is to determine the influence of the SEQ ID No. 5 peptide on the elastic fibers present in the dermis. To do this, specific staining of the elastic fibers was performed on skin samples cultivated ex vivo.
Human skin samples are placed in culture at the air/liquid interface. A 10^−6 M solution of SEQ ID No. 5 peptide is applied topically, then the samples are incubated for 48 hours before being irradiated by UVA at 5 J/cm^2. Untreated irradiated controls are produced in parallel.
These skin samples are then fixed with formaldehyde, then embedded in paraffin. Sections of 4 μm are then produced. These skin sections are successively removed from the paraffin, then rehydrated in different xylene and alcohol baths. the elastin fibers are stained using an Elastika van Gieson staining kit (VWR, Ref: 1.15974). The stained skin sections are dehydrated then mounted in the Eukitt mounting medium and observed under a microscope.

For experiment [8], the system named is fibronectin. Description: Fibronectin immunofluorescence labeling in human dermal fibroblast cultures. It is filed as cell-based. The conditions noted are these: human dermal fibroblasts, 10^−6 M once daily, vs control cells. As to the method: as §1
Human dermal fibroblasts in culture are treated once daily with a 10^−6 solution M of SEQ ID No. 5 peptide (the medium containing the active agent is changed every 24 hours). The cells are then washed and fixed with 3.7% formaldehyde for 10 minutes at ambient temperature.
as §2

Experiment [9] relates to normal human keratinocytes (NHEK). Briefly: Ibidi in vitro healing model (gap filling), keratinocytes. It is filed as cell-based.
Source text: as §5, §6

A further experiment concerns skins cultivated ex vivo. Description: Ultrastructure (transmission electron microscopy) of skins cultivated ex vivo. The experiment is classed as cell-based. The conditions noted are these: ex vivo skin cultures, 10^−6 M, 48 hours. As to the method:
as §11, §12

The subject of experiment [10] is dermatopontin. Briefly: Dermatopontin immunofluorescence labeling in human skin kept in culture ex vivo. Conditions: 10^−6 M solution applied topically, 24 or 48 hours. The experiment is classed as cell-based. How it is done: as §7
The human skin samples are placed in culture at the air/liquid interface. A 10^−6M solution of peptide SEQ ID No. 5 or of peptide SEQ ID No. 9 is applied topically, then the samples are incubated for 24 hours or 48 hours. These skin samples are then fixed with formaldehyde then embedded in paraffin or fixed with OCT, by freezing at −20° C. Sections of 3 to 4 μm are then produced (6 μm for the cold sections). The immunolabeling of the samples embedded in paraffin is performed after unmasking specific sites. The immunolabeling of samples embedded in OCT is performed after fixation at 37° C. and with cold acetone.
as §8

In another experiment the test system is NHEK. Briefly: Ultrastructure (transmission electron microscopy) of keratinocytes in culture. Conditions: 10^−6 M, 48 hours, vs untreated control. The experiment is classed as cell-based, human. As to the method: as §11, §12

With “Arg-Glu-Trp-Gln-Phe-Tyr-Cys(Cys)-(NH2) [SEQ ID No. 5]”, in the experiment with fibronectin [1], the “densification of the area supporting the dermoepidermal junction (fibronectin immunofluorescence)” value is listed as “stimulates the densification of the area supporting the dermoepidermal junction”. The “expression of collagen III (immunofluorescence)” value is reported as “more intense fluorescence” in the experiment with collagen III [2] and “more intense fluorescence; also recorded: increases the expression” in the experiment on collagen III [4]. The “gap filling / proliferation and migration by comparison with control conditions” value was “filled the gap faster; also recorded: stimulates the proliferation and migration” in the experiment on dermal fibroblasts (fibroblasts cultivated in the presence of the peptide); “filled the gap faster; also recorded: stimulates the proliferation and migration” in [9] (NHEK cultivated in the presence of the peptide). Besides, the “dose dependence of gap filling” value with dermal fibroblasts (fibroblasts, 3×10^−6 M compared with 10^−6 M) is on record as “the gap fills faster”; in experiment [9] (keratinocytes, 3×10^−6 M compared with 10^−6 M), “the gap fills faster”. In addition, the “time to total filling of the gap” value in the experiment on dermal fibroblasts (human fibroblasts, 10^−6 M, 400 μm gap, control gap not yet filled at the same time) stood at 48 h; in [9] (human keratinocytes, 10^−6 M, 400 μm gap, control gap not yet filled at the same time), 30 h. In addition, the “expression of dermatopontin (immunofluorescence)” value in the experiment with dermatopontin [3] is reported as “more intense fluorescence; also recorded: very substantially stimulate the expression of dermatopontin”; in the experiment on dermatopontin [10] it was “more intense fluorescence at the dermis”. For the same substance, the “expression of collagen I (immunofluorescence)” value in the experiment with collagen I [5] is listed as “more intense fluorescence; also recorded: increases the expression of collagen I”; with collagen I [6], “more intense fluorescence”. Also, the “caveolar bodies, rough endoplasmic reticulum and Golgi apparatus (ultrastructure)” value with fibroblasts (vs control cells) is listed as “substantially more developed”. In addition, the “secretion / synthesis of components of the extracellular matrix (ultrastructure)” value in the experiment on fibroblasts (vs untreated control cells) is on record as “more intense secretion of components of the extracellular matrix; also recorded: increase in the synthesis of components of the extracellular matrix”. In experiment [7], the “degradation of the elastic fibers after UV irradiation” value was “less degradation of the elastic fibers; also recorded: preserves the elastic fibers”. Besides, the “organization of the elastic fibers after UV irradiation” value in experiment [7] was “better preservation of the organization of the elastic fibers”. Besides, the “expression of fibronectin (immunofluorescence)” value in the experiment on fibronectin [8] is recorded as “more intense cytoplasmic fluorescence; also recorded: very substantially stimulates the expression of fibronectin”. Besides, the “cellular contacts between the cells of the basal layer (ultrastructure)” value in the experiment on skins cultivated ex vivo is “narrower cellular contacts between the cells of the basal layer; also recorded: increases the intercellular contacts of the basal keratinocytes”. Besides, the “intercellular contacts between keratinocytes (ultrastructure)” value in the experiment with NHEK (cultures in a TRANSWELL system) is on record as “more cohesive”. Further, in the experiment on NHEK (keratinocytes in culture), the “organelles / mitochondria in keratinocytes (ultrastructure)” value is “enrichment in organelles, and in particular mitochondria; also recorded: increase in the density of mitochondria”.

For “Asp-Arg-Glu-Trp-Gln-Phe-Tyr-Cys-NH2 (DREWQFYC-NH2) [SEQ ID No. 9]”, the “expression of dermatopontin (immunofluorescence)” value in the experiment with dermatopontin [3] is listed as “more intense fluorescence; also recorded: very substantially stimulate the expression of dermatopontin”; with dermatopontin [10], “more intense fluorescence at the dermis”.
